Tests used:
FtsZ = target: T1, FtsZ (Mycobacterium tuberculosis, UniProt P9WN95); test: thermal shift assay; format: binding; conditions: read-out: thermal shift (dTm) at 100 μM, 16 h
T1 sequence (P9WN95 1-379): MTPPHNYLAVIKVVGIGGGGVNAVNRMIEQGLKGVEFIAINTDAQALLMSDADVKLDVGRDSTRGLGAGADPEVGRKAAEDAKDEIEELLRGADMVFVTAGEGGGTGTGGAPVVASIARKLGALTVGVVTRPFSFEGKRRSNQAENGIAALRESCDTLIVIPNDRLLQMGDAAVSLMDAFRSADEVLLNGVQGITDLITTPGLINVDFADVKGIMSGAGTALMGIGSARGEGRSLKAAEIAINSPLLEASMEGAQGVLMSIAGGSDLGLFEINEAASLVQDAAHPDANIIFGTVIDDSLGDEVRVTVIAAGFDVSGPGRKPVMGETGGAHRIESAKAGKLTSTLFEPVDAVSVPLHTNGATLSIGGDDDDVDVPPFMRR

PheRS = PheRS (Mycobacterium tuberculosis, UniProt P9WFU3); test: ATP consumption assay; format: biochemical
Sequence of PheRS (P9WFU3 whole entry): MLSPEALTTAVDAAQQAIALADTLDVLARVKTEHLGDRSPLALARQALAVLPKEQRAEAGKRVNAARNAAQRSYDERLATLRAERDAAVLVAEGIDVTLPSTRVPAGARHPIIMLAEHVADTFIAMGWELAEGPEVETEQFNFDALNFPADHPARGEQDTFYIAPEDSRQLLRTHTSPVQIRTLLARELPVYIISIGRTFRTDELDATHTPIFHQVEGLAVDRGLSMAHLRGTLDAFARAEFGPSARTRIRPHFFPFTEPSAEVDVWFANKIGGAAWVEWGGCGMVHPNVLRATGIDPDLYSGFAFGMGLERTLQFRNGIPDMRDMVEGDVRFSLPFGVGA
Sequence of PheRS (P9WFU1 whole entry partner): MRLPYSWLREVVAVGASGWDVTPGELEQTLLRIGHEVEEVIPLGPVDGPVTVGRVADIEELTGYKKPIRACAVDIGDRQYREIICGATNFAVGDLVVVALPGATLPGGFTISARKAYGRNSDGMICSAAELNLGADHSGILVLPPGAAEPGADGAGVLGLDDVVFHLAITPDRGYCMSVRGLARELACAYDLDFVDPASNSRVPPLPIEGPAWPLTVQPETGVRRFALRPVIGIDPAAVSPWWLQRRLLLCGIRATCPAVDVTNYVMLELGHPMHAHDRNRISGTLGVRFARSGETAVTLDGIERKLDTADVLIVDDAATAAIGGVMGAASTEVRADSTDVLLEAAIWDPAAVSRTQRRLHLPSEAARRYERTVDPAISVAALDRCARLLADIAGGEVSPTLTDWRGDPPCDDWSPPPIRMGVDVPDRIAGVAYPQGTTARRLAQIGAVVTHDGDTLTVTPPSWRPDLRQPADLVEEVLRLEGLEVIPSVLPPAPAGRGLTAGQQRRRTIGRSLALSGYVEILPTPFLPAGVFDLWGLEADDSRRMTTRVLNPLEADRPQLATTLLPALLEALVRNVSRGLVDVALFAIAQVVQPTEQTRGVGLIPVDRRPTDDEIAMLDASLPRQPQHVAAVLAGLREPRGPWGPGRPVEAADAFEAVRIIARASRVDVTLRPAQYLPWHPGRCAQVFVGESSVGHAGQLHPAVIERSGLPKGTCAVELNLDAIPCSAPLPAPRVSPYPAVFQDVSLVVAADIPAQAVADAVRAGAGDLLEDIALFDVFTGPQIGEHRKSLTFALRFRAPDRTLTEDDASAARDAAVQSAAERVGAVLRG

Row | SMILES | ΔTm at 100 µM (FtsZ) [°C] | IC50 (PheRS) [µM]
1 | O=C(Nc1cccc(-c2nn[nH]n2)c1)c1ccc2nc(-c3ccccc3)[nH]c2c1 [GDI-10928] | 1.84 | 120
2 | CC(=O)Nc1cc(Nc2cc(NC3CC3)n3ncc(C#N)c3n2)ccc1N(C)CC(=O)Nc1cccc(C(F)(F)F)c1 [GDI-10996] | 1.25 | –

Reference: paper doi:10.1101/2025.04.28.650819v3 (biorxiv, 2025)
